Entries after “also recorded” stand apart in the source; their conditions may differ. Like-named read-outs stand apart in the source and are kept apart here.

One may read the IC50 as the concentration that gives 50% inhibition. A higher IC50 goes with weaker potency. By Kd is commonly meant the equilibrium constant for the complex coming apart.

The target of assay [1] is T1, ΔHsp90β interaction with GST-p50^Cdc37 (Homo sapiens, UniProt P08238, DEL220-271/E274G/I272G/K273G/K275G).
T1 construct: human Hsp90β (1-724 Δ220-275); made in house; host or cells: E. coli BL21 Star (DE3) (ΔHsp90β); E. coli BL21 (DE3) (GST-p50Cdc37)
The assay can be described thus: GST pull-down of ΔHsp90β with GST-p50^Cdc37. The assay is classed as binding. The following applies: for effect on complex in GST pull-down: 1 mM nucleotide or 0.1 mM inhibitor, 15 min incubation, SDS-PAGE. As for the experimental part:
GST pull-down experiments were carried out using 1 mL GST 4 FastFlow resin in 8 mL Flex columns (Kontes). All experiments were performed at room temperature by gravity flow. Loading and wash buffers contained 50 mM Tris pH 8, 50 mM KCl, 5 mM MgCl2, and 5% DMSO. The elution buffer contained an additional 10 mM reduced glutathione. […] The resin was washed with 20 CV wash buffer, and samples were eluted with 2 CV elution buffer. Eluted protein was analysed on 12% SDS-PAGE stained with Coomassie blue for visualization.

For assay [2], the target named is T2, hHsp90β-FL (Homo sapiens, UniProt P08238).
T2 construct: The gene encoding human full-length Hsp90β was subcloned from T47D cell line cDNA; His6 (N); made in house; host or cells: E. coli BL21 Star (DE3)
The assay is described as follows: ITC direct binding to full-length Hsp90β. The protocol:
(§1) Binding of p50^Cdc37 and small molecules to Hsp90 was analyzed using a MicroCal iTC200 titration calorimeter (GE Healthcare). Compounds or p50^Cdc37 were titrated into a solution of Hsp90 using the following concentrations: p50^Cdc37 (200 µM) into Hsp90 (20 µM), nucleotides (600 µM) into Hsp90 (30 µM), inhibitors (300 µM) into Hsp90 (30 µM). […] All experiments were conducted in 50 mM HEPES pH 7.5, 10 mM MgCl2 at 30 °C. For titration of inhibitors, the buffer contained 5% DMSO. […] Generation of heat due to dilution was determined in separate experiments by diluting protein into buffer and subtracting these as blank values for each injection. Corrected heat values were fitted using a nonlinear least squares curve-fitting algorithm (Microcal Origin 7.0) to obtain the stoichiometry (n), binding constants (Ka, Kd), and change in enthalpy for each enzyme-ligand interaction (ΔH).

Assay [3] concerns the target T3, ΔHsp90-p50^Cdc37 (Homo sapiens, UniProt P08238, DEL220-271/E274G/I272G/K273G/K275G).
T3 construct: human Hsp90β (1-724 Δ220-275); made in house; host or cells: E. coli BL21 Star (DE3) (ΔHsp90β); E. coli BL21 (DE3) (GST-p50Cdc37)
The assay is described as follows: ELISA complex formation, ΔHsp90. The assay is classed as binding.

The target in assay [4] is T4, Hsp90-p50^Cdc37 (Homo sapiens, UniProt P08238).
T4 construct: The gene encoding human full-length Hsp90β was subcloned from T47D cell line cDNA; made in house; host or cells: E. coli BL21 Star (DE3) (Hsp90β); E. coli BL21 (DE3) (GST-p50Cdc37)
The assay can be described thus: ELISA complex formation, immobilized GST-p50^Cdc37 and Hsp90β, unphosphorylated. The following applies: for IC50: ELISA, Hsp90-p50^Cdc37 (unphosphorylated). The assay is classed as binding.

Assay [5] has as its target (p)Hsp90-p50^Cdc37 (Homo sapiens, UniProt P08238). The assay can be described thus: ELISA complex formation, CK2-phosphorylated Hsp90β. A general note: An ELISA detects its analyte on a solid surface through an enzyme-linked reagent.
Experimental: (§2) Phosphorylation of full-length Hsp90β and p50^Cdc37 was performed using purified full-length CK2α. The reaction was carried out in a 2.5 mL volume containing 50 µM Hsp90β or p50^Cdc37, 0.5 µM CK2α, 0.5 mM ATP, 20 mM Tris (pH 7.5), 50 mM KCl, and 10 mM MgCl2, and was incubated for 1 h at 30 °C. Samples were removed for analysis of phosphorylation status, and the proteins were re-buffered into 50 mM HEPES (pH 7.5), 150 mM NaCl, and 1 mM DTT (ELISA), or into 50 mM HEPES (pH 7.5) for ITC, using PD-10 gravity columns (GE Healthcare). Dephosphorylation was performed using 2.5 units of FastAP (alkaline phosphatase from Thermo Scientific) in buffer containing 10 mM Tris (pH 8.0 at 37 °C), 5 mM MgCl2, 100 mM KCl, 0.02% Triton-X 100, and 0.5 mg/mL BSA for 1 h at 37 °C.
(§3) Purified GST-p50^Cdc37 (4 µM) or control (purified GST alone, 4 µM) was added to glutathione-coated 96-well plates (Pierce) in 100 μL protein buffer (50 mM HEPES, pH 7.5, 150 mM NaCl, 10 mM MgCl2, 0.05% Tween-20, and 0.1% BSA) and incubated for 1 h at room temperature (triplicate wells per sample). […] The mixtures were then added to the wells (100 μL per well, in triplicates) and incubated for 1 h at room temperature before washing. The wells were incubated with anti-His6-tag mAb (1 mg/mL stock, Abcam), diluted 1:2000 in antibody buffer (50 mM HEPES pH 7.5, 150 mM NaCl, 10 mM MgCl2, 0.05% Tween-20, and 1% BSA) for 1 h, followed by secondary antibody (horse anti-mouse HRP-conjugated IgG, Cell Signaling Technology), diluted 1:5000 in antibody buffer, for 1.5 h at room temperature. After washing three times with 1× HBS-T and two times with 1× HBS, 200 μL HRP substrate (SigmaFast OPD) was added per well. The plates were incubated at room temperature, and the absorbance was read at 450 nm after 15 min and 30 min using a SpectraMax 340 PC plate reader (Molecular Devices). For dose-response measurements, absorption values were corrected for unspecific binding of Hsp90 to immobilized GST, and the raw data were fit to equation (1), where f(I) is the fraction of complex remaining, [I] is the concentration of the inhibitor, IC50 is the half maximal inhibitory concentration against Hsp90-p50^Cdc37 complex formation, n is the Hill slope coefficient, min is the signal remaining at high inhibitor concentrations and max is the signal of the uninhibited complex. Corrected absorption values (ΔOD) for the uninhibited Hsp90-p50^Cdc37 complex (unphosphorylated and phosphorylated) were in the range of 0.4–1.0. Data were expressed relative to the respective max value of Equation (1). (1) f(I)=min+(max−min)/1+([I]/IC50)^n
In assay [6] the target is T5, (p)Hsp90-(p)p50^Cdc37 (Homo sapiens, UniProt P08238). The assay is described as follows: biochemical.
Experimental: as §2, §3
Assay [7] concerns yeast Hsp90 complex formation with human p50^Cdc37 or yeast Cdc37 protein. More on the design: method as in PMID 11916974. The settings on record: ref [39]; cited from earlier work.
The target in assay [8] is yHsp82-FL. The settings on record: yHsp82-FL with human p50^Cdc37; ref [30]; read-out: Reported Kd; cited from earlier work.
The target of assay [9] is T6, hΔHsp90β (Homo sapiens, UniProt P08238, DEL220-271/E274G/I272G/K273G/K275G).
T6 construct: human Hsp90β (1-724 Δ220-275); His6 (N); made in house; host or cells: E. coli BL21 Star (DE3)
The assay is described as follows: ITC direct binding to Hsp90β deletion mutant lacking the charged linker. The settings on record: 50 mM HEPES pH 7.5, 10 mM MgCl2, 30 °C, read-out: Observed Kd.
Excerpt: The gene encoding human full-length Hsp90β was subcloned from T47D cell line cDNA, and human full-length CK2α was subcloned from MCF7 cell line cDNA, both a kind gift from Dr. Jonathan Lancaster, Moffitt Cancer Center. […] The deleted sections in the two Hsp90 genes were each replaced by four glycine residues. Hsp90α and Hsp90β were subcloned into the pET28a vector (Novagen), and p50^Cdc37 was subcloned into a modified pET28a vector containing a maltose-binding protein (MBP) solubility tag and a PreScission protease cleavage site using restriction enzymes BamHI and NotI (Fermentas) and T4 DNA ligase (Invitrogen) following the manufacturers’ instructions. BamHI was substituted with NdeI for full-length Hsp90β. p50^Cdc37 was also subcloned into the pGEX6P-1 vector (GE Healthcare) using the same procedure as above to provide an N-terminal GST-tag for GST pull-down and ELISA experiments. The plasmids were transformed into E. coli BL21 Star (DE3) (Hsp90α and Hsp90β, Invitrogen), Tuner (DE3) (p50^Cdc37 modified pET28a, Novagen), or BL21 (DE3) (p50^Cdc37 pGEX6P-1, Stratagene) expression strains. Transformed cells were grown in LB broth at 37 °C until the OD600 reached 0.4, then the temperature was lowered to 16 °C, and cells were induced with 0.1 mM IPTG at OD600 = 0.5–0.7. Cultures were then grown for 20–24 h before harvesting by centrifugation (30 min at 30,000× g, 4 °C).
as §1

Assay [10] addresses T7, hHsp90β-N (Homo sapiens, UniProt P08238).
T7 construct: human N-terminal Hsp90β (1-219, denoted Hsp90β-N); His6 (N); made in house; host or cells: E. coli BL21 Star (DE3)
The assay can be described thus: ITC direct binding to N-terminal domain of Hsp90β. The settings on record: 30 °C, read-out: Observed Kd. An excerpt: The gene encoding human full-length Hsp90β was subcloned from T47D cell line cDNA, and human full-length CK2α was subcloned from MCF7 cell line cDNA, both a kind gift from Dr. Jonathan Lancaster, Moffitt Cancer Center. The genes encoding the deletion mutants human Hsp90α (1-732 Δ226-283), human Hsp90β (1-724 Δ220-275), human N-terminal Hsp90β (1-219, denoted Hsp90β-N), and human full-length p50^Cdc37 (residues 1-378) were synthesized by GeneArt AG with optimized codon usage for E. coli expression. The deleted sections in the two Hsp90 genes were each replaced by four glycine residues. […]
Binding of p50^Cdc37 and small molecules to Hsp90 was analyzed using a MicroCal iTC200 titration calorimeter (GE Healthcare). […] Typically, an initial 0.5 µL injection was followed by 19 injections of 2.2 µL of syringe solution (compound or p50^Cdc37) into a 200 µL protein solution of Hsp90 constantly stirred at 1000 rpm, and data were recorded for 180 s between injections. Generation of heat due to dilution was determined in separate experiments by diluting protein into buffer and subtracting these as blank values for each injection. […]

Assay [11] has as its target T5, (p)Hsp90-(p)p50^Cdc37. The assay can be described thus: ELISA complex formation, both proteins CK2-phosphorylated. The following applies: ELISA, (p)Hsp90-(p)p50^Cdc37 (phosphorylated complex).
Experimental: as §2, §3
In assay [12] the target is T8, interaction of the N-terminal domain of Hsp90β with p50^Cdc37 (Homo sapiens, UniProt P08238).
T8 construct: human N-terminal Hsp90β (1-219, denoted Hsp90β-N); His6 (N); made in house; host or cells: E. coli BL21 Star (DE3) (Hsp90β-N); E. coli Tuner (DE3) (p50Cdc37)
The assay can be described thus: ITC of N-terminal Hsp90β with p50^Cdc37 in the presence of ADP. Type of assay: binding. The following applies: 5 mM ADP. As for the experimental part:
Binding of p50^Cdc37 and small molecules to Hsp90 was analyzed using a MicroCal iTC200 titration calorimeter (GE Healthcare). Compounds or p50^Cdc37 were titrated into a solution of Hsp90 using the following concentrations: p50^Cdc37 (200 µM) into Hsp90 (20 µM), nucleotides (600 µM) into Hsp90 (30 µM), inhibitors (300 µM) into Hsp90 (30 µM). Titrations of compounds into p50^Cdc37 were performed with similar compound/protein ratios. All experiments were conducted in 50 mM HEPES pH 7.5, 10 mM MgCl2 at 30 °C. For titration of inhibitors, the buffer contained 5% DMSO. Typically, an initial 0.5 µL injection was followed by 19 injections of 2.2 µL of syringe solution (compound or p50^Cdc37) into a 200 µL protein solution of Hsp90 constantly stirred at 1000 rpm, and data were recorded for 180 s between injections. Generation of heat due to dilution was determined in separate experiments by diluting protein into buffer and subtracting these as blank values for each injection. Corrected heat values were fitted using a nonlinear least squares curve-fitting algorithm (Microcal Origin 7.0) to obtain the stoichiometry (n), binding constants (Ka, Kd), and change in enthalpy for each enzyme-ligand interaction (ΔH).

Assay [13] concerns the target h(p)Hsp90β-FL (Homo sapiens, UniProt P08238). The assay can be described thus: ITC direct binding to CK2-phosphorylated full-length Hsp90β. The settings on record: 30 °C, read-out: Observed Kd. The protocol: as §1
Assay [14] concerns the target hHsp90β-FL. The following applies: ref [31], read-out: Reported Kd; cited from earlier work.
The target of assay [15] is T9, Hsp90-(p)p50^Cdc37 (Homo sapiens, UniProt P08238).
T9 construct: The gene encoding human full-length Hsp90β was subcloned from T47D cell line cDNA; made in house; host or cells: E. coli BL21 Star (DE3) (Hsp90β); E. coli BL21 (DE3) (GST-p50Cdc37)
The assay is described as follows: ELISA complex formation, CK2-phosphorylated p50^Cdc37. Type of assay: binding.

For assay [16], the system named is Hsp90β-p50^Cdc37 complex. More on the design: method as in PMID 19858214. The following applies: ref [26]; cited from earlier work.

T1 sequence (P08238 with tags, fused parts or gaps DEL220-271/I272G/K273G/E274G/K275G): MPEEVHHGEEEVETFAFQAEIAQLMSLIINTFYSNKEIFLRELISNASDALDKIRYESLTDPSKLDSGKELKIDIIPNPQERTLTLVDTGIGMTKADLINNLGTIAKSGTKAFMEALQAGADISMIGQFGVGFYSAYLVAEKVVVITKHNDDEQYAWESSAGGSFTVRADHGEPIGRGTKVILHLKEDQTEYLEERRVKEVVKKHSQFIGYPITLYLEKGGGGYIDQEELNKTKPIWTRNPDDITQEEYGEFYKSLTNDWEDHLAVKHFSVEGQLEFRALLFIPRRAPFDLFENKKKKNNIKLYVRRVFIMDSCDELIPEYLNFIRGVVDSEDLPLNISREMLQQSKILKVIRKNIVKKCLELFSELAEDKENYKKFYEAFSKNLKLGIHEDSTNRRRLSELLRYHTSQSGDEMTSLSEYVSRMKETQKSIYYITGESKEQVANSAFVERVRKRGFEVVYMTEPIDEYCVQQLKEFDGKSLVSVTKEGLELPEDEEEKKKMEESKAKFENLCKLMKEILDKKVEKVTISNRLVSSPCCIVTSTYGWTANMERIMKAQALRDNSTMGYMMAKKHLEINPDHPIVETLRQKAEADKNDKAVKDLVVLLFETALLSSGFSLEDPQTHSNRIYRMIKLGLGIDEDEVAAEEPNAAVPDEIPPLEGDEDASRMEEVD
Sequence of (p)Hsp90-p50^Cdc37 (P08238 whole entry): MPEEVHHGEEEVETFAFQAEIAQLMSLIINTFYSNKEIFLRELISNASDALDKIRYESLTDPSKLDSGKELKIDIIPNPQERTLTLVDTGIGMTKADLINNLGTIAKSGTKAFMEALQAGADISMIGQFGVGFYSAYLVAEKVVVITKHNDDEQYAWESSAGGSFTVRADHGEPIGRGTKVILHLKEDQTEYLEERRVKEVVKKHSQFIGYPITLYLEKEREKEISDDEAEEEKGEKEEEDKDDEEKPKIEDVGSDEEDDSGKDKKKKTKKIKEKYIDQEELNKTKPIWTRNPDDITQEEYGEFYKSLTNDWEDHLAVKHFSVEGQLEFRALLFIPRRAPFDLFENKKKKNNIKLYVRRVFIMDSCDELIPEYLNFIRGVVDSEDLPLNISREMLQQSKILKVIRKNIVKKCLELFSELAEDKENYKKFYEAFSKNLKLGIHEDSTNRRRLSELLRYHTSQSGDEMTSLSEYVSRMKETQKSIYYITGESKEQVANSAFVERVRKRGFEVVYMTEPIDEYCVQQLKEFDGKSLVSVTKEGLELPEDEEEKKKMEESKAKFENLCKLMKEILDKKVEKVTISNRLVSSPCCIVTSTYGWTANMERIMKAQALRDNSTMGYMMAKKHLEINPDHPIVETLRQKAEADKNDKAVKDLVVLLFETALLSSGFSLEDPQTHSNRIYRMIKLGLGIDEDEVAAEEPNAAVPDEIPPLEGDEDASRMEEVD
T6 sequence (P08238 with tags, fused parts or gaps DEL220-271/I272G/K273G/E274G/K275G): as the sequence (P08238 with tags, fused parts or gaps DEL220-271/I272G/K273G/E274G/K275G) above
T3 sequence (P08238 with tags, fused parts or gaps DEL220-271/I272G/K273G/E274G/K275G): as above
T5 sequence (P08238 whole entry): as the sequence (P08238 whole entry) above
T7 sequence (P08238 1-219): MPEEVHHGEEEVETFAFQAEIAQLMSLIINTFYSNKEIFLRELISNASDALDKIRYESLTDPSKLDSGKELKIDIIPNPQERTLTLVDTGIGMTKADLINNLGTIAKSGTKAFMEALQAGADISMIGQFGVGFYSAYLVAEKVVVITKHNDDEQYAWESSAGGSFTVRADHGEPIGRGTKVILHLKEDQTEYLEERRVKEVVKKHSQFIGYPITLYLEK
T8 sequence (P08238 1-219): as above
Sequence of h(p)Hsp90β-FL (P08238 whole entry): as the sequence (P08238 whole entry) above

As to `CC(=O)O[C@@H]1C[C@H]2C(C)(C)C(=O)C=C[C@]2(C)[C@H]2CC[C@@]3(C)[C@H](c4ccoc4)OC(=O)[C@H]4O[C@]43[C@@]21C` [Gedunin], the “effect on complex in GST pull-down” value in assay [1] is recorded as “ineffective”. Further, in [1] (in the presence of ADP, 0.1 mM radicicol), the “protection of the complex from ADP in GST pull-down competition” value was “had no effect”. Besides, in assay [2] (Figure 3), the “binding potential towards Hsp90β” value is listed as “failed to display binding potential”. Also, the IC50 in assay [3], in assay [4], in [5] and in [6] was above 1000 µM each time. Further, in assay [4] (unphosphorylated or phosphorylated complex, in vitro), the “inhibitory activity against the complex” value is listed as “did not show appreciable inhibitory activity; also recorded: did not affect the interaction of Hsp90 with p50^Cdc37 in vitro”.

With `COC1=C2C[C@@H](C)C[C@H](OC)[C@H](O)[C@@H](C)/C=C(\C)[C@H](OC(N)=O)[C@@H](OC)/C=C\C=C(/C)C(=O)NC(=CC1=O)C2=O` [geldanamycin], the “influence on complex formation” value in assay [7] is “did not influence complex formation”.

For the molecule “p50^Cdc37: human full-length co-chaperone protein p50^Cdc37 (residues 1-378), unphosphorylated”, the results for the dissociation constant (Kd) in assay [8], in assay [9] and in [10] were 1.5 µM, 1.1 µM and 4.4 µM, respectively.

As to `Nc1ncnc2c1ncn2[C@@H]1O[C@H](COP(=O)(O)OP(=O)(O)O)[C@@H](O)[C@H]1O` [ADP], in [1], the “effect on complex in GST pull-down” value is recorded as “inhibited formation of the complex; also recorded: caused disruption of the complex”. In addition, the IC50 was 32 ± 5.6 µM in assay [11]; 400 ± 81 µM in assay [3]; 500 ± 94 µM in assay [4]; 220 ± 24 µM in [5] (ELISA, (p)Hsp90-p50^Cdc37); 220 to 270 µM in assay [5] (ELISA, span: phosphorylation of either Hsp90 or p50^Cdc37); 270 ± 35 µM in [15]. In addition, the “interaction of N-terminal Hsp90β with p50^Cdc37 in the presence of ADP” value in [12] was “abolished”. For the same molecule, the Kd in assay [2] (unphosphorylated hHsp90β-FL, 30 °C, read-out: Observed Kd) was 8.9 µM; in [13], 13 µM; in [14], 7.2 µM; in assay [9] it was 11 µM. Besides, in [16], the “effect on complex formation between Hsp90β and p50^Cdc37” value is reported as “did not exert inhibitory activity; also recorded: showed no effect”.

(Values after paper PMC4601640, “Stability of the Human Hsp90-p50^Cdc37 Chaperone Complex against Nucleotides and Hsp90 Inhibitors, and the Influence of Phosphorylation by Casein Kinase 2” (Molecules, 2015).)
